Data taken from paper PMC7408066, “Attenuation of Inflammatory Symptoms by Icariside B2 in Carrageenan and LPS-Induced Inflammation Models via Regulation of MAPK/NF-κB Signaling Cascades” (Biomolecules, 2020).

Target: T1, COX-2 (Ovis aries, UniProt P79208)
T1 construct: gene PTGS2; ovine purified COX-2
T1 sequence (P79208 17-603): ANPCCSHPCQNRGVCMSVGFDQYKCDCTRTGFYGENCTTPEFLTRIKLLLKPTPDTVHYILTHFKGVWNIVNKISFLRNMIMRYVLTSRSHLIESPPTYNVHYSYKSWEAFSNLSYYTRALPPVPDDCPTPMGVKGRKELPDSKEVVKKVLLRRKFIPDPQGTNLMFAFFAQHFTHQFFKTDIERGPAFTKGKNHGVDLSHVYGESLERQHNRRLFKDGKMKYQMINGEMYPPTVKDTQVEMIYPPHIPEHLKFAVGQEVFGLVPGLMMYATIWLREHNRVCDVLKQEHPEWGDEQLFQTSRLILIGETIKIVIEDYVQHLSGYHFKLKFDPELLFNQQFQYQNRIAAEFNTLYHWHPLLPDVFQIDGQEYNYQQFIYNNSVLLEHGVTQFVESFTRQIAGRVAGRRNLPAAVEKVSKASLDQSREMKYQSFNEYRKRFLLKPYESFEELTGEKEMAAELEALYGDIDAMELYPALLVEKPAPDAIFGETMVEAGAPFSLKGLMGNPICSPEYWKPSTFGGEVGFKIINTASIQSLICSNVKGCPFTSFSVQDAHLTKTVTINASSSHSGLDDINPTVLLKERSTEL
Assay: Cayman colorimetric COX (ovine) inhibitor screening assay, purified enzyme
Format: biochemical

IC50: 7.8 ± 0.26 µM
Structure (SMILES): CC(=O)/C=C/C12OC1(C)CC(OC1OC(CO)C(O)C(O)C1O)CC2(C)C (stereo not shown) [ICSB, icariside B2]
